Where a SMILES comes first, the peptide text is derived from it. The star is where a group is joined. Cbz = O=C(OCc1ccccc1)*; OtBu = CC(C)(C)O*
Assays:
[1] = target: T1, proteasomes of red blood cells (Mus musculus, UniProt O55234); test: Proteasome inhibition assay, red blood cells treated with compounds, then proteasomes isolated and protease activity assessed; format: cell-based; details: red blood cells treated first, then proteasomes isolated; OSA compared with isoginkgetin; FIG. 2B
T1 construct: endogenous in cells; host or cells: red blood cells
Description: If RBC are used, the RBC pellet obtained in the process of obtaining WBC described above is recovered and washed with 3 ml PBS, then centrifuged at 500×g (Sorvall RT 6000D, rotor H-1000B at 1500 rpm) for 5 min at room temperature. The supernatant is removed and the RBC pellet resuspended in 1 ml PBS and microcentrifuged at 6600×g (Eppendorf 5415C at 7000 rpm) for 10 min at room temperature. The supernatant is again removed and the RBC pellet is then frozen at −70° C. prior to proteasome analysis.
To prepare the proteasomes, WBC or RBC or PWB 1:1 (v/v) are lysed using 5 mM EDTA, pH 8.0 for 30 min and centrifuged at 15,000×g (Eppendorf 5415C at 14,000 rpm) for 10 min at room temperature. The supernatant containing proteasomes is placed on ice and the protein concentration is determined.
(§1) For the assay, 50 μl sample—i.e., 20 proteasome; or standard; or ˜50 μg/μl WBC; or ˜500 μg/μl RBC or ˜1000 μg/μl PWB samples some containing test compounds is added to 50 μl substrate buffer (20 mM HEPES, 0.5 mM EDTA, 0.05% SDS, and 120 μM LLVY-AMC; pH 8.0) in a 96-well black fluorescence plate. The reaction is measured with a fluorescence spectrophotometer (excitation max.: 380 nm; emission max.: 440 nm, and velocity of reaction determined. As shown, the substrate is Leu-Leu-Val-Tyr-AMC. AMC is amido-4-methylcoumarin. […]

C57 male black mice = test: Stimulation of hair growth on shaved dorsal trunk, topical application; format: in vivo; details: 5 days, 1% OSA (100 μl) or 10% isoginkgetin (50 μl), after 17 days and 26 days, FIGS. 3A and 3B
Description: C57 male black mice, 8 weeks old, were acclimated for 7 days in individual cages and fed standard diets and water ad libitum. The mice were anesthetized prior to manipulation. The dorsal trunk of each mouse was shaved and then treated topically starting the following day with a 1.0% solution of OSA (100 μl) which was applied for each of 5 days. A similar protocol was followed using 50 μl solution of isoginkgetin at percentages of 1, 5 and 10% wt/wt. The progression of hair growth is monitored visually and photographed.
FIGS. 3A and 3B show the results for 1% OSA or 10% isoginkgetin after 17 days and 26 days respectively.

20S proteasome = target: T2, 20S proteasome (Mus musculus, UniProt O55234); test: Proteasome inhibition assay, compounds added directly to 20S proteasome preparation (LLVY-AMC cleavage); format: biochemical; details: 20S proteasome preparations from packed whole blood of mice, FIG. 2A
T2 construct: 20S proteasome preparations from packed whole blood of mice; from tissue; host or cells: packed whole blood of mice (EDTA lysate supernatant)
Description: If packed whole blood is used as a source for proteasomes, 1 ml blood collected in heparinized microtainer tubes is diluted 1:1 (v/v) with saline and centrifuged at 500×g (Sorvall RT 6000D, rotor H-1000B at 1500 rpm) for 5 min at room temperature. The supernatant is removed and the PWB pellet resuspended in 1 ml PBS and microcentrifuged at 6600×g (Eppendorf 5415C at 7000 rpm) for 10 min at room temperature. The supernatant is removed and the PWB pellet is then frozen at −70° C. prior to proteasome analysis.
To prepare the proteasomes, WBC or RBC or PWB 1:1 (v/v) are lysed using 5 mM EDTA, pH 8.0 for 30 min and centrifuged at 15,000×g (Eppendorf 5415C at 14,000 rpm) for 10 min at room temperature. The supernatant containing proteasomes is placed on ice and the protein concentration is determined. […]
as §1

- proteasome inhibition when red blood cells are treated with the compounds [1]: more effective
- inhibition of the Vmax of the proteolytic cleavage of the LLVY-AMC substrate (20S proteasome): similarly inhibit the Vmax
SMILES: CC[C@H](C)[C@H](NC(=O)OCc1ccccc1)C(=O)N[C@@H](CCC(=O)OC(C)(C)C)C(=O)N[C@@H](C)C(=O)N[C@H](C=O)CC(C)C [OSA] (Cbz-IE(OtBu)AL-aldehyde)
- growth of hair in the dorsal area as compared to control (C57 male black mice): stimulate the growth of hair

Reference: patent US7678395B2, “Stimulation of hair growth by isoginkgetin” (Osteoscreen, Inc., priority 2003, dated 2010)
